Reference: patent US20080069785A1, “PEST-CONTROL COMPOSITIONS, AND METHODS AND PRODUCTS UTILIZING SAME” (priority 2004, published 2008)
“And” between values parts separate entries of the source, which are not always exact repeats. Equal entries are not always repeated.

Test system: Eastern subterranean termite, Reticulitermes flavipes
Experiment: Termite direct application test (Example 20)
Format: in vivo
Details: 1 uL onto the back or thorax
Description: In this test, in addition to water as a negative control, a positive control, in the form of the commercially available pesticide Raid® in also included. The method in this test simply involved pippetting 1 uL of the formulation onto the back or thorax of the Eastern subterranean termite, Reticulitermes flavipes, and recording the time to death. This test was performed on Mar. 13, 2007. The formulations used in the test were: (a) Raid®, a commercially available pesticide, (b) Undecanone, (c) BioUD™10, (d) BioUD™5, (e) Soy Methyl Ester (SME), and (f) water as a negative control.

CCCCCCCCCC(C)=O [Undecanone, 2-Undecanone]
Time-to-death (sec), mean: 171.5 s
Time-to-death (individual termite): 157 s and 389 s and 68 s and 174 s and 146 s
